4 compounds from ChEMBL document CHEMBL5338732, “Perspective for Discovery of Small Molecule IL-6 Inhibitors through Study of Structure-Activity Relationships and Molecular Docking” (J Med Chem, 2023) can be followed below.

Common to all, as to type: functional, cell-based
In assay [1] the test system is MH60. The assay is described as follows: Cytotoxicity in mouse MH60 cells assessed as inhibition of recombinant human IL-6-induced growth incubated for 72 hrs by tetrazolium method. The settings on record: MH60, 72 h.
Assay [2] concerns MDA-MB-435. Put plainly: Cytotoxicity against human MDA-MB-435 cells assessed as reduction in cell growth incubated for 72 hrs by MTT assay. The settings on record: MDA-MB-435, 72 h.
Assay [3] in a line: Cytotoxicity against human p53HCT116 cells assessed as inhibition of cell growth incubated for 72 hrs by MTT assay. The settings on record: p53HCT116, 72 h.
Assay [4] in a line: Cytotoxicity against human HCT116-p53-null cells assessed as inhibition of cell growth incubated for 72 hrs by MTT assay.

Regarding `CCCCC1=C(C)C(=O)[C@@](C)(CN2c3ccccc3[C@]3(O)CCO[C@H]23)C1=O`, the IC50 in assay [1] came to 8000 nM. The same measure, in the same setting: the value for `Cc1c(-c2ccc(O)cc2)n(Cc2ccc(OCCN3CCCCCC3)cc2)c2ccc(O)cc12` [BAZEDOXIFENE] was 3800 nM.

`CCCCC1=C(C)C(=O)[C@](C)(CN2c3ccccc3[C@]3(O)CCO[C@H]23)C1=O`: the IC50 in assay [1] was 30000 nM. In the case of `O=C(NNc1nc2cc(F)ccc2n2cccc12)c1cnccn1`, the IC50 in assay [2], in assay [3] and in assay [4] was 400 nM each time.
